The subject of assay [1] is interferon-stimulated gene (ISG) response. Kind of assay: In vivo decitabine challenge model in C57BL/6 mice. To be noted: kidneys, decitabine i.p. 5 mg/kg, compound 1, 10, 100 mg/kg p.o. once a day. The method, then: Exemplary compounds were tested for ability to alter the interferon-stimulated gene (ISG) response in C57BL/6 mice treated with decitabine. Assay procedures and results are described below. Twenty 9-11 week old C57BL/6 mice were acclimated to the lab for at least 5 days. Compound 23 was prepared in a 0.5% methylcellulose solution for p.o. administration. Decitabine (Sigma-Aldrich) was dissolved in sterile PBS (pH 7.4) and dosed within 30 minutes of preparation of the solution. Doses of both the compound and decitabine were administered once a day, every day from Day 0 to Day 4. […] The fold changes in interferon-stimulated gene (ISG) expression was calculated by first normalizing to GAPDH gene using the Delta CT method. The CT (gene of interest) —CT (reference gene) was calculated to generate a delta CT for all samples. […] The fold changes in interferon-stimulated gene (ISG, specifically IRF7 and MX1) expression was calculated by first normalizing to GAPDH gene using the Delta CT method. The CT (gene of interest)−CT (reference gene) was calculated to generate a delta CT for all samples. The fold change was then calculated by taking the […](Delta CT(control)−Delta CT (experimental). The control in this example was the PBS control animal group. Individual primers were used to amplify target genes.

For another assay, the system named is THP1-Dual KO-TREX1 cells. The assay can be described thus: THP1 TREX1 KO inhibition assay, combination dosing. It counts as cell-based. As to conditions: for EC50: Homo sapiens, THP1-Dual, read-out: EC50 of Compound 2. As to the method: Exemplary compounds were tested to determine the effect of combined dosing of two compounds on the type 1 interferon response in THP1 Dual TREX1 KO cells treated with 5-aza-2′-deoxycytidine. Assay procedures and results are described below.
THP1 Dual TREX1 KO cells were purchased from InvivoGen. The THP1-Dual™ KO-TREX1 cells were cultured in RPMI 1640, 10% heat-inactivated fetal bovine serum, 25 mM HEPES, 10 μg/mL blasticidin, and 100 μg/mL Zeocin. THP1-Dual™ KO-TREX1 cells were treated with a dose titration of test compound in the presence of 1 μM 5-aza-2′-deoxycytidine (Sigma, cat #189825). Type 1 Interferon and cell viability were assessed after five days of treatment.
Stock solution of test compounds stampidine and Compound 2 were prepared in DMSO followed by a three-fold dilution in DMSO. The plate was prepared with a matrix of test compound concentrations, with stampidine on the y-axis (final concentrations 3 μM to 0.0003 μM) and Compound 2 on the x-axis (final concentrations 0.3 μM to 0.00003 μM). Additional 50× dilution was prepared in cell culture media for each dilution. 10 μL of diluted test compound was then added to a 384-well plate.
THP1-Dual™ KO-TREX1 cells were treated with 1 μM 5-aza-2′-deoxycytidine. THP1-Dual™ KO-TREX1 cells (50 μL) were added to each well of the 384-well plate containing test compound titration at 10,000 cells/well. Cells were incubated at 37° C., 5% CO2 in a humidified incubator for five days. On day five, 20 μL of cell supernatant was transferred to a 384-well, white-walled plate, followed by addition to each well of 50 μL of QUANTI-LUC solution containing stabilizer. Luminescence was detected on a plate reader according to manufacturer's instructions. Percent inhibition of interferon was calculated using the following analysis: (Average DMSO-Sample)/(Average DMSO-Average 30 μM stampidine)*100.
The remaining cells were assessed for cell viability by adding 30 μl of CellTiter-Glo (Promega, G9683) solution to each well, and placed on a shaker for 10 minutes at room temperature. Luminescence was detected on a plate reader, according to manufacturer's instructions. Percent inhibition of cell viability using CellTiter-Glo was calculated using the following analysis: (Average DMSO−Sample)/(Average DMSO−Average 20 μM viability control reagent)*100.
Combination analysis was performed using the Bivariate Response to Additive Interacting Doses (BRAID) according to Twarog, N. R., et al. Scientific Reports 6:25523 (DOI: 10.1038/srep25523). The best BRAID fit was determined to be k 2.00 (0.583-3.64), where k>0 denotes synergy, k=0 denotes additivity, and k<0 denotes antagonism. Potentiation modeling curves are provided for potentiation of Compound 2 at four concentrations of stampidine (FIG. 7A) and for potentiation of stampidine at four concentrations of Compound 2 (FIG. 7B).

The values that follow come from patent US12187758B2 (ROME Therapeutics, Inc., priority 2022, dated 2025).

For orientation: EC50 means the concentration that produces a half-maximal response.

Read-outs that look alike come from different tables or passages of the source.

As to `Nc1ccn([C@H]2C[C@H](O)[C@](CO)(CCl)O2)c(=O)n1` [Compound 2, 4-amino-1-((2R,4S,5R)-5-(chloromethyl)-4-hydroxy-5-(hydroxymethyl)tetrahydrofuran-2-yl)pyrimidin-2(1H)-one], in assay [1], the “change in ISG response (IRF7 and MX1), FIGS. 2B and 2C” value is “shows a change in the ISG response”. Further, the EC50 came out at 40 nM with THP1-Dual KO-TREX1 cells (Stampidine 0 μM), 33.5 nM with THP1-Dual KO-TREX1 cells (Stampidine 0.001 μM), 20.3 nM with THP1-Dual KO-TREX1 cells (Stampidine 0.01 μM) and 0.15 nM with THP1-Dual KO-TREX1 cells (Stampidine 0.1 μM). Also, the “BRAID fit k (k>0 denotes synergy)” value in the assay with THP1-Dual KO-TREX1 cells (combination of stampidine and Compound 2, 1 μM 5-aza-2′-deoxycytidine, five days) is on record as 2.00 (0.583-3.64).
